Where a name gives a salt, the structure may show the parent alone.
What was measured:
Assay type in all cases: cell-based
[1] = biological target: EGFR (A767_dupASV) expressing Ba/F3 stable cell line (Homo sapiens, UniProt P00533, DUP767-769, cells depend on it); assay: Cellular proliferation (Alamar Blue) assay, EGFR A767_dupASV Ba/F3; details: EGFR A767_dupASV Ba/F3, 72 hr, read-out: A767 IC50
Outline: (§1)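 Viability is measured by Alamar Blue conversion over 3 h, read as fluorescence at 540/590 nm. Cells are treated for 72 h with compound spanning 10–0.0005 μM final in 3-fold dilutions, after overnight attachment; Ba/F3 cells go in at 15,000 per well in RPMI with 10% FBS.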

[2] = biological target: EGFR(D770_N771insSVD) expressing Ba/F3 stable cell line (Homo sapiens, UniProt P00533, DUP768-770, cells depend on it); assay: Cellular proliferation (Alamar Blue) assay, EGFR D770_N771insSVD Ba/F3; details: EGFR D770_N771insSVD Ba/F3, 72 hr, read-out: D770 IC50
Chain of EGFR(D770_N771insSVD) expressing Ba/F3 stable cell line (P00533 with tags, fused parts or gaps DUP768-770): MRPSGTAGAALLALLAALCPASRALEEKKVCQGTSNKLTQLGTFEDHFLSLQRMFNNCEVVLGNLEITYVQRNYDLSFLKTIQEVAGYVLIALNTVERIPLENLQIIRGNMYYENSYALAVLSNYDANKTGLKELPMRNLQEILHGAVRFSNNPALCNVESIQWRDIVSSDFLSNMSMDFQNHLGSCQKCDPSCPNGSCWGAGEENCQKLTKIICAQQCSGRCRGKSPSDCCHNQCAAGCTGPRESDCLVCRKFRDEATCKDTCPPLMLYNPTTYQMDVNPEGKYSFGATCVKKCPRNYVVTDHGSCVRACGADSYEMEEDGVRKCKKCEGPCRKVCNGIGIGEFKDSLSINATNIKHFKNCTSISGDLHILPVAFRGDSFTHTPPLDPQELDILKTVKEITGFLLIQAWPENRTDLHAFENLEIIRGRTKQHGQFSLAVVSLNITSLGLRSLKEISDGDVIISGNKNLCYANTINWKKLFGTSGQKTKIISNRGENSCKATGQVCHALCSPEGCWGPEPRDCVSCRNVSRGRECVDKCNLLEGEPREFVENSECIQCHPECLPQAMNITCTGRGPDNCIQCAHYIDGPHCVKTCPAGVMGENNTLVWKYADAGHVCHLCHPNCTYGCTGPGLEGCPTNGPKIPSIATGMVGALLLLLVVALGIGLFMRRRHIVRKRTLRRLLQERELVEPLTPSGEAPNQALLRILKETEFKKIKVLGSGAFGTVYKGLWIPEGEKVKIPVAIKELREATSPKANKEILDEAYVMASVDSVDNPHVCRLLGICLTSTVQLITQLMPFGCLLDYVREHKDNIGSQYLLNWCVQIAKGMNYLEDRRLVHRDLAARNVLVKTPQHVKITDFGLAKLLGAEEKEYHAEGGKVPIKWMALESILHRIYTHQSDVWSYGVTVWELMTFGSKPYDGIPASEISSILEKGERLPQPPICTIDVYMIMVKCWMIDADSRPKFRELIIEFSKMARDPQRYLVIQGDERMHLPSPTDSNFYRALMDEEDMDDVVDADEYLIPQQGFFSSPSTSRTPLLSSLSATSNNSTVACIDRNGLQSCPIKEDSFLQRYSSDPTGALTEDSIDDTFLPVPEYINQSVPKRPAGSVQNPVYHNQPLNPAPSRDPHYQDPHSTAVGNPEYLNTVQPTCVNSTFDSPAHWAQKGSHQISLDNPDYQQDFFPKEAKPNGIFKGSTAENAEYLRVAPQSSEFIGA
Outline: as §1

A431 cells = assay: Cellular proliferation (Alamar Blue) assay, A431; details: Homo sapiens, A-431; A431 cells, 72 hr, Alamar Blue; read-out: A431 IC50
Outline: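 Seventy-two-hour growth assay with 3-fold compound titration (final 10–0.0005 μM) and Alamar Blue fluorescence end point, ex 540/em 590 nm.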

[3] = biological target: HER2 (A775_G776insYVMA) expressing Ba/F3 stable cell line (Homo sapiens, UniProt P04626, DUP772-775, cells depend on it); assay: Cellular proliferation (Alamar Blue) assay, HER2 YVMA Ba/F3; details: HER2 A775_G776insYVMA Ba/F3, 72 hr, read-out: YVMA IC50
Chain of HER2 (A775_G776insYVMA) expressing Ba/F3 stable cell line (P04626 with tags, fused parts or gaps DUP772-775): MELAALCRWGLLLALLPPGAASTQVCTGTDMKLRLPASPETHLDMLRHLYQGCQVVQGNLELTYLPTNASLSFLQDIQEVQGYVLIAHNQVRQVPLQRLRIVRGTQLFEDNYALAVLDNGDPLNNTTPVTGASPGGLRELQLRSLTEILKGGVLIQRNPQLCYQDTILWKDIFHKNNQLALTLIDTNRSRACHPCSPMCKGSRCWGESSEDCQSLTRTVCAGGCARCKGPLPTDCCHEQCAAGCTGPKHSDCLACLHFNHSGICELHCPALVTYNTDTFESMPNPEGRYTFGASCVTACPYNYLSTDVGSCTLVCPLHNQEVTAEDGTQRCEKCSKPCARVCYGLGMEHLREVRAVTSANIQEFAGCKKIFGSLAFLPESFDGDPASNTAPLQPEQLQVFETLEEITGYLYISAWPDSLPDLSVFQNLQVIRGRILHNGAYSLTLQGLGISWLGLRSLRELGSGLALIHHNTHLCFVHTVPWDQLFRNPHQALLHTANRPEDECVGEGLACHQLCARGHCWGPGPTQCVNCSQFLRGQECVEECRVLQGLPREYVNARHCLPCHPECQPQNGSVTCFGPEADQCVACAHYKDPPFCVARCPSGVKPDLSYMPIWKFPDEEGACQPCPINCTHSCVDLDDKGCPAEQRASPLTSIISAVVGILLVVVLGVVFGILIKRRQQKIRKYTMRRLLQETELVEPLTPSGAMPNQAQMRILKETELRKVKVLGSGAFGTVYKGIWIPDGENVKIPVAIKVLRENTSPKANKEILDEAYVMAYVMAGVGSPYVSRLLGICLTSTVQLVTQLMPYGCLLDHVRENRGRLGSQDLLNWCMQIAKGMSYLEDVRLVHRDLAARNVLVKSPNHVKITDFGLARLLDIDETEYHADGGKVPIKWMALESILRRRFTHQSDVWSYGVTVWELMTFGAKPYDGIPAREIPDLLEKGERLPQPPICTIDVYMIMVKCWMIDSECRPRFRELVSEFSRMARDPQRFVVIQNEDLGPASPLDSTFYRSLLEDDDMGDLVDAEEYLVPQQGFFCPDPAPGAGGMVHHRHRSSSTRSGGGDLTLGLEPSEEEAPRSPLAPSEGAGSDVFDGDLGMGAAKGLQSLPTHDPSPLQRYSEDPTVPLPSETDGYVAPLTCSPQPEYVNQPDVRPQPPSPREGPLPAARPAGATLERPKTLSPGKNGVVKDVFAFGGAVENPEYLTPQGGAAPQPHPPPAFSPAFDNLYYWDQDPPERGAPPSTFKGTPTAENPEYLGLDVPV
Procedure: Example 3: Cellular Proliferation (Alamar Blue) Assays
• 1. EGFR(D770_N771insSVD) expressing Ba/F3 stable cell line • 2. EGFR (A767_dupASV) expressing Ba/F3 stable cell line • 3. A431 cells • 4. BTER2 (A775_G776insYVMA) expressing Ba/F3 stable cell line • 5. BTER2 (WT) expressing Ba/F3 stable cell line • 6. BT-474 cells
• 1. Seed cells at 5000 for A431 and 15,000 cells for Ba/F3 in 100 μL/well in complete media (for A431: DMEM with 10% FBS and for Ba/F3 cells: RPMI with 10% FBS) in 96-well tissue culture plate. Leave outer wells without cells for background measurements. Incubate at 37 degree Celsius in 5% CO2 humidified incubator for 16-18 hours. • 2. Add 0.025 ml of 5× concentration compound dilution or DMSO control. Final compound concentration range is 10-0.0005 μM prepared in 3-fold serial dilutions. Incubate for 72 hr at 37 degree Celsius in […] humidified incubator. • 3. Add 0.0125 mL Alamar Blue™ reagent to each well with multi-channel pipette and tap gently on each side of the plate to mix. Incubate for 3 hours at 37 degree Celsius in […] humidified incubator. • 4. Read plates on fluorescence reader (Tecan Spark Control, Device: Spark, Serial #: 1801006040) at 540 nm excitation, 590 nm emission wavelength. • 5. Data analysis was performed using XLfit 5.5.0.5.

Chain of EGFR (A767_dupASV) expressing Ba/F3 stable cell line (P00533 with tags, fused parts or gaps DUP767-769): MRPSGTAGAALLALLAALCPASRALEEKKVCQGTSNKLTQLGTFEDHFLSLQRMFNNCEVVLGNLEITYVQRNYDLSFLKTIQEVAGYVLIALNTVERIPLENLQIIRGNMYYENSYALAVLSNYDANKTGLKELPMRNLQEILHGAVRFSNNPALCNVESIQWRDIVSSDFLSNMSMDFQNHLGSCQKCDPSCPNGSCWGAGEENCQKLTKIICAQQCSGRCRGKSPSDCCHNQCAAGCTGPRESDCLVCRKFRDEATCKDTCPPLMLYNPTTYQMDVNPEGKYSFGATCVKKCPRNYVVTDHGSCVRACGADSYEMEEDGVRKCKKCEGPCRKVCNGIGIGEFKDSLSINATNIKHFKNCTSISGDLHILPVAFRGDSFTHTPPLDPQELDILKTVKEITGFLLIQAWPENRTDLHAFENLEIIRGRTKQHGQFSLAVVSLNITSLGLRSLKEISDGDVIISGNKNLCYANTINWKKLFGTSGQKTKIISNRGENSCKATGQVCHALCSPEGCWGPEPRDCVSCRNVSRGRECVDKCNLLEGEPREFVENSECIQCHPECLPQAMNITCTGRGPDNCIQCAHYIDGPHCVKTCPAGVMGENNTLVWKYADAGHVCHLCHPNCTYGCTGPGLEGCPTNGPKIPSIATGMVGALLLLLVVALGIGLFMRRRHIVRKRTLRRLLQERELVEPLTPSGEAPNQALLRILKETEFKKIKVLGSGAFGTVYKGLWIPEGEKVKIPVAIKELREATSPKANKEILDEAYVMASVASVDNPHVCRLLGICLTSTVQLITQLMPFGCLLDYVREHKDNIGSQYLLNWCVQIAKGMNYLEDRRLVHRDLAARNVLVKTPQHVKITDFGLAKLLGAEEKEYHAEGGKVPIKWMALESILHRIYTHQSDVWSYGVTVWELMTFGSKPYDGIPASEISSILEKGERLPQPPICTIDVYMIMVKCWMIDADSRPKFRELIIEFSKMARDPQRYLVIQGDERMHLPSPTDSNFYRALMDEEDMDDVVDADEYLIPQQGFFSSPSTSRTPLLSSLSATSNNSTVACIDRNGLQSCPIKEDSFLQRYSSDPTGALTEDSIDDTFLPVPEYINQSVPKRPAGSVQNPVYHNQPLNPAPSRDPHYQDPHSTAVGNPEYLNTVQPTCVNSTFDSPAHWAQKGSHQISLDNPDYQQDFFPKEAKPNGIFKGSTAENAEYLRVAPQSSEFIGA

| Compound | GI50 [1] [nM] | GI50 [2] [nM] | IC50 (A431 cells) [µM] | GI50 [3] [nM] |
| --- | --- | --- | --- | --- |
| CN(C)C/C=C/C(=O)Nc1cccc(N2C(=O)N(Cc3ccccc3)Cc3cnc(Nc4cn(C5CCN(C)CC5)nc4Cl)nc32)c1 [Compound 65, (E)-N-(3-(3-benzyl-7-((3-chloro-1-(1-methylpiperidin-4-yl)-1H-pyrazol-4-yl)amino)-2-oxo-3,4-dihydropyrimido[4,5-d]pyrimidin-1(2H)-yl)phenyl)-4-(dimethylamino)but-2-enamide trifluoroacetate salt] | 964 | 1090 | ≥ 10 | 732 |
| CN(C)C/C=C/C(=O)Nc1cccc(N2C(=O)N(Cc3ccccc3)Cc3cnc(Nc4ccc(N5CCN(C)CC5)nc4)nc32)c1 [Compound 66, (E)-N-(3-(3-benzyl-7-((6-(4-methylpiperazin-1-yl)pyridin-3-yl)amino)-2-oxo-3,4-dihydropyrimido[4,5-d]pyrimidin-1(2H)-yl)phenyl)-4-(dimethylamino)but-2-enamide] | 3280 | 3190 | ≥ 10 | 1760 |
| C=CC(=O)Nc1cccc(N2C(=O)N(Cc3ccccc3)Cc3cnc(Nc4ccc(N5CCN(C)CC5)nc4)nc32)c1 [Compound 67, N-(3-(3-benzyl-7-((6-(4-methylpiperazin-1-yl)pyridin-3-yl)amino)-2-oxo-3,4-dihydropyrimido[4,5-d]pyrimidin-1(2H)-yl)phenyl)acrylamide] | 41 | 84 | ≥ 10 | 90 |
| Cc1ccc(CN2Cc3cnc(Nc4cn(C)nc4Cl)nc3N(c3cccc(NC(=O)/C=C/CN(C)C)c3)C2=O)c(C)c1 [Compound 68, (E)-N-(3-(7-((3-chloro-1-methyl-1H-pyrazol-4-yl)amino)-3-(2,4-dimethylbenzyl)-2-oxo-3,4-dihydropyrimido[4,5-d]pyrimidin-1(2H)-yl)phenyl)-4-(dimethylamino)but-2-enamide] | 356 | 798 | 6.02 | 632 |
| C=CC(=O)Nc1cccc(N2C(=O)N(Cc3ccc(C)cc3C)Cc3cnc(Nc4cn(C)nc4Cl)nc32)c1 [Compound 69, N-(3-(7-((3-chloro-1-methyl-1H-pyrazol-4-yl)amino)-3-(2,4-dimethylbenzyl)-2-oxo-3,4-dihydropyrimido[4,5-d]pyrimidin-1(2H)-yl)phenyl)acrylamide] | 333 | 349 | ≥ 10 | 682 |
| Cn1cc(Nc2ncc3c(n2)N(c2cccc(NC(=O)/C=C/CN4CCCCC4)c2)C(=O)N(Cc2ccccc2)C3)c(Cl)n1 [Compound 70, (E)-N-(3-(3-benzyl-7-((3-chloro-1-methyl-1H-pyrazol-4-yl)amino)-2-oxo-3,4-dihydropyrimido[4,5-d]pyrimidin-1(2H)-yl)phenyl)-4-(piperidin-1-yl)but-2-enamide] | 42 | 72 | ≥ 10 | 38 |
| C=CC(=O)Nc1cccc(N2C(=O)N(Cc3ccccc3)Cc3cnc(Nc4cn(C)nc4F)nc32)c1 [Compound 71, N-(3-(3-benzyl-7-((3-fluoro-1-methyl-1H-pyrazol-4-yl)amino)-2-oxo-3,4-dihydropyrimido[4,5-d]pyrimidin-1(2H)-yl)phenyl)acrylamide] | 22 | 21 | ≥ 10 | 137 |

Further lines, results first:

| GI50 [1] [nM] | GI50 [2] [nM] | IC50 (A431 cells) [µM] | GI50 [3] [nM] | Compound |
| --- | --- | --- | --- | --- |
| 100 | 296 | ≥ 10 | 575 | C=CC(=O)Nc1cccc(N2C(=O)N(Cc3ccccc3)Cc3cnc(Nc4ccc(N5CCC(N(C)C)CC5)nc4)nc32)c1 [Compound 72, N-(3-(3-benzyl-7-((6-(4-(dimethylamino)piperidin-1-yl)pyridin-3-yl)amino)-2-oxo-3,4-dihydropyrimido[4,5-d]pyrimidin-1(2H)-yl)phenyl)acrylamide] |
| 4 | 20 | ≥ 10 | 49 | C=CC(=O)Nc1cccc(N2C(=O)N(Cc3ccccc3)Cc3cnc(Nc4cn(C)nc4Cl)nc32)c1 [Compound 73, N-(3-(3-benzyl-7-((3-chloro-1-methyl-1H-pyrazol-4-yl)amino)-2-oxo-3,4-dihydropyrimido[4,5-d]pyrimidin-1(2H)-yl)phenyl)acrylamide] |
| 11 | 25 | ≥ 10 | 80 | Cn1cc(Nc2ncc3c(n2)N(c2cccc(NC(=O)/C=C/CF)c2)C(=O)N(Cc2ccccc2)C3)c(Cl)n1 [Compound 74, (E)-N-(3-(3-benzyl-7-((3-chloro-1-methyl-1H-pyrazol-4-yl)amino)-2-oxo-3,4-dihydropyrimido[4,5-d]pyrimidin-1(2H)-yl)phenyl)-4-fluorobut-2-enamide] |
| 89 | 107 | ≥ 10 | 338 | C=CC(=O)Nc1cccc(N2C(=O)N(Cc3ccccc3)Cc3cnc(Nc4cccc5c4CCN5C)nc32)c1 [Compound 79, N-(3-(3-benzyl-7-((1-methylindolin-4-yl)amino)-2-oxo-3,4-dihydropyrimido[4,5-d]pyrimidin-1(2H)-yl)phenyl)acrylamide] |
| 343 | 806 | ≥ 10 | 296 | CN(C)C/C=C/C(=O)Nc1cccc(N2C(=O)N(Cc3ccccc3)Cc3cnc(Nc4cccc5c4CCN5C)nc32)c1 [Compound 80, (E)-N-(3-(3-benzyl-7-((1-methylindolin-4-yl)amino)-2-oxo-3,4-dihydropyrimido[4,5-d]pyrimidin-1(2H)-yl)phenyl)-4-(dimethylamino)but-2-enamide] |
| 27 | 35 | ≥ 10 | 13 | C=CC(=O)Nc1ccc(F)c(N2C(=O)N(Cc3ccccc3)Cc3cnc(Nc4cn(C)nc4Cl)nc32)c1 [Compound 81, N-(3-(3-benzyl-7-((3-chloro-1-methyl-1H-pyrazol-4-yl)amino)-2-oxo-3,4-dihydropyrimido[4,5-d]pyrimidin-1(2H)-yl)-4-fluorophenyl)acrylamide] |
| 123 | 280 | ≥ 10 | 40 | Cn1cc(Nc2ncc3c(n2)N(c2cccc(NC(=O)/C=C/CN4CCCCC4)c2)C(=O)N(Cc2ccccc2)C3)c(F)n1 [Compound 82, (E)-N-(3-(3-benzyl-7-((3-fluoro-1-methyl-1H-pyrazol-4-yl)amino)-2-oxo-3,4-dihydropyrimido[4,5-d]pyrimidin-1(2H)-yl)phenyl)-4-(piperidin-1-yl)but-2-enamide] |
| 1010 | 992 | ≥ 10 | 740 | COC/C=C/C(=O)Nc1cccc(N2C(=O)N(Cc3ccccc3)Cc3cnc(Nc4cn(C)nc4F)nc32)c1 [Compound 83, (E)-N-(3-(3-benzyl-7-((3-fluoro-1-methyl-1H-pyrazol-4-yl)amino)-2-oxo-3,4-dihydropyrimido[4,5-d]pyrimidin-1(2H)-yl)phenyl)-4-methoxybut-2-enamide] |
| 94 | 123 | 1.28 | 38 | CN(C)C/C=C/C(=O)Nc1ccc(F)c(N2C(=O)N(Cc3ccccc3)Cc3cnc(Nc4cn(C)nc4Cl)nc32)c1 [Compound 85, (E)-N-(3-(3-benzyl-7-((3-chloro-1-methyl-1H-pyrazol-4-yl)amino)-2-oxo-3,4-dihydropyrimido[4,5-d]pyrimidin-1(2H)-yl)-4-fluorophenyl)-4-(dimethylamino)but-2-enamide] |
